Measured values from patent USRE46943E1, “Radioprotector compounds and methods” (PETER MACCALLUM CANCER INSTITUTE, priority 2010, dated 2018).
pIC50: −log10 of the molar value. Where two headings read alike, the source gives them in different places.

Experiments:
[1] = tested on: transformed human keratinocyte cell line (FEP 1811); assay: Clonogenic survival cell culture assay for cytotoxicity; format: cell-based; settings: un-irradiated keratinocytes, one hour drug exposure, colonies counted after eight days, read-out: C50 (concentration of radioprotector that results in 50% clonogenic survival)
Procedure: • i. […] In appropriate cases, tautomers are drawn to illustrate potential hydrogen-bond donating configurations into the minor groove of DNA. • ii. 2-Amino-4-(5′-(4″-methylpiperazin-1″-yl)benzimidazol-2′-yl)aniline was prepared by hydrogenation of 4-(5′-(4″-methylpiperazin-1″-yl)benzimidazol-2′-yl)-2-nitroaniline, using a modification of the method of Kelly et al, Aust. […] 2-Amino-4-(5′-(piperidin-1″-yl)benzimidazol-2′-yl)aniline was prepared by hydrogenation of 2-nitro-4-(5′-(piperidin-1″-yl)benzimidazol-2′-yl)aniline, using a modification of the method of Kelly et al, Aust. […] Ethyl 4-amino-3-nitrobenzenecarboximidate hydrochloride was prepared by reaction of 4-amino-3-nitrobenzonitrile with dry HCl gas in ethanol, using the method of Kelly et al, Aust. […] 5-(4′-Methylpiperazin-1′-yl)-2-nitroaniline was prepared using a modification of the method of Kelly et al, Aust. […] The following chemicals were obtained from the chemical suppliers indicated: 2-furaldehyde (Aldrich), 2-pyridinecarboxaldehyde (Aldrich), 3-fluoropyridine-2-carbaldehyde (Maybridge), 3-trifluoromethylpyridine-2-carboxaldehyde (Apollo Scientific), 6-methyl-2-pyridinecarboxaldehyde (Matrix Scientific), 5-methylpyridine-2-carbonitrile (Apollo Scientific), 4-methyl-2-pyridinecarbonitrile (Aldrich), 4-chloro-2-pyridinecarbonitrile (Aldrich), 4-methoxypicolinonitrile (Combi-Blocks), pyrazinecarbonitrile (Aldrich), 2-quinolinecarbonitrile (Aldrich), 3-isoquinolinecarbonitrile (Aldrich), 1-isoquinolinecarboxylic acid (Aldrich), indazole-3-carboxylic acid (Aldrich), 2-hydroxynicotinic acid (Aldrich), 4-hydroxypiperidine (Aldrich), 1-methylhomopiperazine (Aldrich), 3-hydroxypiperidine (Aldrich), 4-(N-BOC-amino)piperidine (Aldrich), 4-methoxypiperidine (Acros), 4-methyl-3-nitrobenzonitrile (Aldrich), 5-chloro-2-nitroaniline (Aldrich), 2-cyanopyridine (Aldrich), methyl 4-amino-2-methoxybenzoic acid (Aldrich), 4-(trifluoromethyl)-2-pyridinecarbonitrile (Matrix Scientific), cis-2,6-dimethylmorphoiline (Acros), 5-(trifluoromethyl)-2-pyridinecarbonitrile (Advanced Chemical Intermediates) and 5-fluoro-2-pyridinecarbonitrile (Advanced Chemical Intermediates). • ix. […] Melting points were determined using an Electrothermal melting point apparatus, and are uncorrected. […] The abbreviations s for singlet, d for doublet, t for triplet, q for quartet, br for broad and m for muitiplet were used in the assignments of multiplicity. A value approximating the centre of a multiplet is quoted. […] The addition of a few drops of acetic acid to methanol-d4 solutions was used to enhance solubility for the acquisition of ^13C nmr spectra. Mass spectra were recorded on a Micromass Quattro II mass spectrometer and accurate mass analyses were carried out by the School of Chemistry at the University of Melbourne on a Finnigan LTQ-FT model high resolution mass spectrometer. Thin layer chromatography (TLC) was carried out using Merck silica gel 60 F254 aluminium sheets or Merck neutral aluminium oxide 150 F254 sheets. Flash column chromatography was carried out using Ajax silica gel 230-400 mesh. • xi. […] The details are described in detail in Martin et al (4) (the disclosure of which is included herein in its entirety by way of reference), but briefly, mid-log phase monolayer cultures are incubated with various concentrations of the test drugs for one hour, after which the monolayers are washed and dispersed into single cell suspensions using pronase, and finally appropriate numbers of cells are dispensed into Petri dishes. Colonies are counted after eight days incubation. […] The irradiation (with a dose rate of 0.6 Gy per minute) is started 30 minutes after addition of the test drug. After completion of irradiation, incubation of cultures is continued until the total time of exposure to the drug reaches 60 minutes. Cultures are then washed and plated for clonogenic survival as described for the cytotoxicity experiments.

[2] = tested on: transformed human keratinocyte cell line (FEP 1811); assay: Clonogenic survival cell culture assay for radioprotective activity (12 Gy 137Cs gamma irradiation); format: cell-based
Text: PF is defined as a ratio of survival at maximum protection Sm and survival after irradiation only So: PF=Sm/So. DMF is defined as a ratio of doses that result in survival level of Sm in the presence Dp and the absence Dc of radioprotector: DMF=Dp/Dc. DMF10 is define in a similar way except that instead of Sm a survival at 10 microM of radioprotector is used.
PF (Protection Factor) is defined as a ratio of survival at maximum protection Sm and survival after irradiation only So:PF=Sm/So. DMF (Dose Modification Factor) is defined as a ratio of doses that result in survival level of Sm in the presence (Dp) and the absence (Dc) of radioprotector: DMF=Dp/Dc. DMF10 is defined in a similar way except that instead of Sm a survival at 10 microM of radioprotector is used.
• i. […] In appropriate cases, tautomers are drawn to illustrate potential hydrogen-bond donating configurations into the minor groove of DNA. • ii. 2-Amino-4-(5′-(4″-methylpiperazin-1″-yl)benzimidazol-2′-yl)aniline was prepared by hydrogenation of 4-(5′-(4″-methylpiperazin-1″-yl)benzimidazol-2′-yl)-2-nitroaniline, using a modification of the method of Kelly et al, Aust. […] 2-Amino-4-(5′-(piperidin-1″-yl)benzimidazol-2′-yl)aniline was prepared by hydrogenation of 2-nitro-4-(5′-(piperidin-1″-yl)benzimidazol-2′-yl)aniline, using a modification of the method of Kelly et al, Aust. […] Ethyl 4-amino-3-nitrobenzenecarboximidate hydrochloride was prepared by reaction of 4-amino-3-nitrobenzonitrile with dry HCl gas in ethanol, using the method of Kelly et al, Aust. […] 5-(4′-Methylpiperazin-1′-yl)-2-nitroaniline was prepared using a modification of the method of Kelly et al, Aust. […] The following chemicals were obtained from the chemical suppliers indicated: 2-furaldehyde (Aldrich), 2-pyridinecarboxaldehyde (Aldrich), 3-fluoropyridine-2-carbaldehyde (Maybridge), 3-trifluoromethylpyridine-2-carboxaldehyde (Apollo Scientific), 6-methyl-2-pyridinecarboxaldehyde (Matrix Scientific), 5-methylpyridine-2-carbonitrile (Apollo Scientific), 4-methyl-2-pyridinecarbonitrile (Aldrich), 4-chloro-2-pyridinecarbonitrile (Aldrich), 4-methoxypicolinonitrile (Combi-Blocks), pyrazinecarbonitrile (Aldrich), 2-quinolinecarbonitrile (Aldrich), 3-isoquinolinecarbonitrile (Aldrich), 1-isoquinolinecarboxylic acid (Aldrich), indazole-3-carboxylic acid (Aldrich), 2-hydroxynicotinic acid (Aldrich), 4-hydroxypiperidine (Aldrich), 1-methylhomopiperazine (Aldrich), 3-hydroxypiperidine (Aldrich), 4-(N-BOC-amino)piperidine (Aldrich), 4-methoxypiperidine (Acros), 4-methyl-3-nitrobenzonitrile (Aldrich), 5-chloro-2-nitroaniline (Aldrich), 2-cyanopyridine (Aldrich), methyl 4-amino-2-methoxybenzoic acid (Aldrich), 4-(trifluoromethyl)-2-pyridinecarbonitrile (Matrix Scientific), cis-2,6-dimethylmorphoiline (Acros), 5-(trifluoromethyl)-2-pyridinecarbonitrile (Advanced Chemical Intermediates) and 5-fluoro-2-pyridinecarbonitrile (Advanced Chemical Intermediates). • ix. […] Melting points were determined using an Electrothermal melting point apparatus, and are uncorrected. […] The abbreviations s for singlet, d for doublet, t for triplet, q for quartet, br for broad and m for muitiplet were used in the assignments of multiplicity. A value approximating the centre of a multiplet is quoted. […] The addition of a few drops of acetic acid to methanol-d4 solutions was used to enhance solubility for the acquisition of ^13C nmr spectra. Mass spectra were recorded on a Micromass Quattro II mass spectrometer and accurate mass analyses were carried out by the School of Chemistry at the University of Melbourne on a Finnigan LTQ-FT model high resolution mass spectrometer. Thin layer chromatography (TLC) was carried out using Merck silica gel 60 F254 aluminium sheets or Merck neutral aluminium oxide 150 F254 sheets. Flash column chromatography was carried out using Ajax silica gel 230-400 mesh. • xi.

[3] = 12 Gy, 10 microM radioprotector
[4] = 12 Gy, DMF=Dp/Dc at survival level Sm
[5] = 12 Gy, survival at maximum protection vs irradiation only
[6] = Homo sapiens, Keratinocyte, light or radiation study

Compound	pIC50 [1]	DMF10 (dose modification factor at a concentration of 10 microM of radioprotector) [2, 3]	DMFm (dose modification factor at maximum protection) [2, 4]	PF (protection factor = Sm/So) [2, 5]	pIC50 [1, 6]	DMF10 (dose modification factor at a concentration of 10 microM of radioprotector) [2]	DMFm (dose modification factor at maximum protection) [2]	PF (protection factor = Sm/So) [2]
CN(C)CCNc1ccc2[nH]c(-c3ccc4[nH]c(-c5ccccn5)nc4c3)nc2c1 [Example 43, 2-(5′-(5″-(2′″-(dimethylamino)ethylamino)benzimidazol-2″-yl)benzimidazol-2′-yl)pyridine]	3.93	1.28	1.61	11.2	–	–	–	–
CN(CCO)c1ccc2[nH]c(-c3ccc4[nH]c(-c5ccccn5)nc4c3)nc2c1 [Example 54, 2-(5′-(5″-(3′″-hydroxyethyl-1′″-methylamino)benzimidazol-2″-yl)benzimidazol-2′-yl)pyridine]	–	1.15	1.87	20.2	4.03	–	–	–
CN1CCN(c2ccc3[nH]c(-c4ccc5[nH]c(-c6ccc7ccccc7n6)nc5c4)nc3c2)CC1 [Example 13, 2-(5′-(5″-(4′″-Methylpiperazin-1′″-yl)benzimidazol-2″-yl)benzimidazol-2′-yl)quinoline]	4.85	1.65	1.66	11.0	–	–	–	–
c1ccc(-c2nc3ccc(-c4nc5ccc(N6CCSCC6)cc5[nH]4)cc3[nH]2)nc1 [Example 36, 2-(5′-(5″-thiomorpholinobenzimidazol-2″-yl)benzimidazol-2′-yl)pyridine]	–	1.49	1.53	16.4	4.50	–	–	–
2-(5′-(5″-(4′″-methylpiperazin-1′″-yl)-1H-indol-2″-yl)benzimidazol-2′-yl)pyridine [Example 53]	4.47	1.21	1.30	4.9	–	–	–	–
COCCN1CCN(c2ccc3nc(-c4ccc5nc(-c6ccccn6)[nH]c5c4)[nH]c3c2)CC1 [Example 40, 2-(5′-(5″-(4′″-(2″″-methoxyethyl)piperazin-1′″-yl)benzimidazol-2″-yl)benzimidazol-2′-yl)pyridine]	–	1.77	198	20.2	4.09	–	–	–
CN(C)C(=O)N1CCN(c2ccc3[nH]c(-c4ccc5[nH]c(-c6ccccn6)nc5c4)nc3c2)CC1 [Example 37, 2-(5′-(5″-(4′″-(dimethylcarbamoyl)piperazin-1 ′″-yl)benzimidazol-2″-yl)benzimidazol-2′-yl)pyridine]	3.92	1.49	1.82	34.6	–	–	–	–
2-(5′-(5″-(2′″-(dimethylamino)ethoxy)benzimidazol-2″-yl)benzimidazol-2′-yl)pyridine [Example 44]	3.84	–	–	–	–	1.50	1.88	17.6
C[C@@H]1CN(c2ccc3nc(-c4ccc5nc(-c6ccccn6)[nH]c5c4)[nH]c3c2)C[C@H](C)O1 [Example 52, 2-(5′-(5″-(cis-2′″,6′″-dimethylmorpholino)benzimidazol-2″-yl)benzimidazol-2′-yl)pyridine]	–	1.40	1.75	55.9	3.87	–	–	–
Cc1cccc(-c2nc3ccc(-c4nc5ccc(N6CCN(C)CC6)cc5[nH]4)cc3[nH]2)n1 [Example 5, 6-Methyl-2-(5′-(5″-(4′″-methylpiperazin-1′″-yl)benzimidazol-2″-yl)benzimidazol-2′-yl)pyridine]	–	1.12	1.22	2.5	4.13	–	–	–
COCCNc1ccc2[nH]c(-c3ccc4nc(-c5ccccn5)[nH]c4c3)nc2c1 [Example 35, 2-(5′-(5″-(2′″-methoxyethylamino)benzimidazol-2″-yl)benzimidazol-2′-yl)pyridine]	–	1.66	2.19	21.9	3.90	–	–	–
CN1CCN(c2ccc3[nH]c(-c4ccc5[nH]c(-c6nn(C)c7ccccc67)nc5c4)nc3c2)CC1 [Example 17, 1-methyl-3-(5′-(5″-(4′″-methylpiperazin-1′″-yl)benzimidazol-2″-yl)benzimidazol-2′-yl)indazole]	4.12	1.27	1.68	10.9	–	–	–	–
